In PubChem BioAssay (NCI):
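Protocol summary: plate cells (96-well), add compound at 5 concentrations, incubate 48 h, interpolate endpoints linearly. TGI denotes the concentration required for complete inhibition of growth.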

How the values were obtained:
Experiment in all cases: NCI tumour cell line growth inhibition, 48 h
KM12 colon = test system: KM12 colon
XF 498 CNS = test system: XF 498 CNS
DU-145 prostate = test system: DU-145 prostate
HS 578T breast = test system: HS 578T breast
BT-549 breast = test system: BT-549 breast
MDA-MB-435 = test system: MDA-MB-435
M14 melanoma = test system: M14 melanoma
PC-3 prostate = test system: PC-3 prostate
RXF-631 renal = test system: RXF-631 renal
MDA-MB-231 breast = test system: MDA-MB-231 breast
SR leukemia = test system: SR leukemia
T-47D breast = test system: T-47D breast

SMILES | TGI (KM12 colon) [µM] | TGI (XF 498 CNS) [µM] | TGI (DU-145 prostate) [µM] | TGI (M14 melanoma) [µM] | also measured
O=C(NC(Cc1ccc(I)cc1)C(=O)O)c1ccc(Br)cc1 (stereo unspecified) | > 100 | > 100 |  |  | 
N=C(N)c1ccc(N=Nc2c(O)ccc3c2[nH]c2ccccc23)cc1 |  |  | > 100 | > 100 | TGI (HS 578T breast): > 100 µM; TGI (BT-549 breast): 99.4 µM; TGI (MDA-MB-435): > 39.6 µM; TGI (PC-3 prostate): > 60.3 µM
COc1ccc2nc3ccccc3c(NCCCCCCN(CCCl)CCCl)c2c1 | 1.14 |  | 1.47 | 0.514 | TGI (RXF-631 renal): 1.96 µM; TGI (MDA-MB-231 breast): 3.37 µM; TGI (SR leukemia): 0.346 µM
COC(=O)C1=C(C(=O)OC)SC2(S1)C1=C(CCCC1)SC(C(=O)OC)=C2C(=O)OC | 19 |  | 3.54 | 32.5 | TGI (MDA-MB-231 breast): 29.3 µM; TGI (HS 578T breast): 30.7 µM; TGI (BT-549 breast): 25.1 µM; TGI (MDA-MB-435): 10 µM; TGI (PC-3 prostate): 17.8 µM; TGI (T-47D breast): 13.5 µM
COc1ccc(/C(Cl)=C(\C=O)c2ccc(F)cc2)cc1OC |  |  |  | 47.9 | TGI (RXF-631 renal): 49.2 µM
COc1cc(Nc2c3ccccc3nc3ccccc23)ccc1NS(C)(=O)=O |  |  |  | 13.5 | TGI (SR leukemia): 15.2 µM
Nc1ccc2[nH]c3c(-c4ccccc4)nccc3c2c1 | > 100 | > 100 |  |  | 
Cc1[nH]c(=O)[nH]c(=O)c1/C=C/C(=O)O | > 1000 | > 1000 |  |  | 
